Source: US11273131B2, “Pharmaceutical compositions with enhanced permeation” (AQUESTIVE THERAPEUTICS, INC., priority 2016, dated 2022)
Marks after values point to notes of the source that are not given here.

Tests used:
[1] = Diazepam solubility in excipients; format: physicochemical; conditions: diazepam (API) in the excipient
Excerpt: Diazepam was applied in the buccal area (cheek) to diffuse through the oral mucosa and enter directly into the bloodstream. Solubility of diazepam was also studied using various excipients.
The following excipients have also been studied to improve solubility.

[2] = Ex vivo permeation of epinephrine, Franz diffusion cell
Method: A franz diffusion cell is obtained and prepared.
If testing films, one can perform the following next steps: (1) weigh films, punch to match diffusion area (or smaller), reweigh, record pre- and post-punching weight; (2) wet a donor area with approximately 100 μL of phosphate buffer; (3) place film on a donor surface, top with 400 μL of phosphate buffer, and start timers.
The tissue is dermatomed to precise thickness. • 4. […] The media is selected to ensure sink conditions. • 5.

[3] = Excipient properties (HLB, water solubility); format: physicochemical; conditions: of the excipient
[4] = FIG. 6A, 6B

In the case of OCc1ccccc1 [Benzyl Alcohol], the “API Solubility mg/gm total mix” value [1] is reported as 400 mg/gm total mix.
In the case of CNC[C@H](O)c1ccc(O)c(O)c1 [Epinephrine Base], the “permeation, base solubilized in situ vs Epinephrine Bitartrate” value ([2]; 4.4 mg/mL base vs 8.00 mg/mL bitartrate) is reported as “no differences were found” and the “Average Steady State Flux” value ([2]; conc 4.4 mg/mL, solubilized in situ) is reported as 0.512 ug/cm2 * min.
For CNC[C@H](O)c1ccc(O)c(O)c1 [Epinephrine Bitartrate], the “permeation as a function of concentration” value [2] was “increasing concentration resulted in increased permeation”, the “permeation as a function of solution pH” value [2] was “pH 5 was slightly more favorable as compared to pH 3” and the average flux ([2]; 30 min, 16 mg/mL) was 0 μg/cm2 * min. The average flux ([2]; 45 min, 16 mg/mL) was 0.2604 μg/cm2 * min, the average flux ([2]; 60 min, 16 mg/mL) was 0.3125 μg/cm2 * min and the average flux ([2]; 120 min, 16 mg/mL) was 0.6727 μg/cm2 * min. It also gave an average flux ([2]; 180 min, 16 mg/mL) of 1.076 μg/cm2 * min, an average flux ([2]; 240 min, 16 mg/mL) of 1.029 μg/cm2 * min and an average flux ([2]; 300 min, 16 mg/mL) of 1.25 μg/cm2 * min. The “Average Steady State Flux” value ([2]; 360 min, 4 mg/mL) was 0.167 ug/cm2 * min, the “Average Steady State Flux” value ([2]; 360 min, 8 mg/mL) was 0.466 ug/cm2 * min and the “Average Steady State Flux” value ([2]; 360 min, 16 mg/mL) was 1.317 ug/cm2 * min. For the same compound, the average flux ([2]; 360 min, 16 mg/mL) was 1.385 μg/cm2 * min and the “Average Steady State Flux” value ([2]; 360 min, 100 mg/mL) was 2.942 ug/cm2 * min.
With CCCCCCCC/C=C\CCCCCCCC(=O)OCC(O)CO (stereo not shown) [Glycerol Monooleate] the “API Solubility mg/gm total mix” value [1] was 71 mg/gm total mix and the HLB [3] was 1.
With CCCCCCCC/C=C\CCCCCCCC(=O)O [Oleic Acid] the “API Solubility mg/gm total mix” value [1] was under 50 mg/gm total mix.
With CC(O)CO (stereo not shown) [Propylene Glycol] the “API Solubility mg/gm total mix” value [1] was under 30 mg/gm total mix.
In the case of CNC[C@H](O)c1ccc(O)c(O)c1 [epinephrine], the “time after which amount leveled off” value [4] is reported as “about 40 minutes”.
